Measurements reported in US11529328B2, “Formulations for pharmaceutical agents” (The Curators of the University of Missouri, priority 2019, dated 2022).
Converted amounts (≈) assume the structure as drawn.

How the values were obtained:
[1] = cited from earlier work
[2] = deionized-water; cited from earlier work
[3] = test system: DU-145; conditions: exposure time period of 72; previous study; read-out: reported IC50 of DXT; cited from earlier work
[4] = test system: MCF-10A; assay: MTS cell viability / cytotoxicity on normal MCF-10A cells; type: cell-based, human; conditions: 1% v/v

Compound	log P [1]	solubility [2] [µg/mL]	IC50 [3] [nM]	cytotoxicity of positive control [4]
CC(=O)O[C@@]12CO[C@@H]1C[C@H](O)[C@@]1(C)C(=O)[C@H](O)C3=C(C)[C@@H](OC(=O)[C@H](O)[C@@H](NC(=O)OC(C)(C)C)c4ccccc4)C[C@@](O)([C@@H](OC(=O)c4ccccc4)[C@H]21)C3(C)C [native DXT, Docetaxel]	4.1	11.75 (≈ 14.5 µM)	8.2	–
Triton X	–	–	–	strongly cytotoxic
